Source: ChEMBL document CHEMBL3046581, “Synthesis and cytotoxic activity of diaryl urea derivatives with a 4-methylpiperazinylcarbonyl moiety” (Med Chem Res, 2013)
pIC50: −log10 of the molar value.

Tests used:
PC-3 [1] = test: Cytotoxicity against Homo sapiens (human) PC3 cells assessed as growth inhibition at 100 uM after 48 hr by MTT assay; format: functional; conditions: PC-3, 48 h, read-out: GI
A549 [2] = test: Cytotoxicity against Homo sapiens (human) A549 cells assessed as growth inhibition at 100 uM after 48 hr by MTT assay; format: functional; conditions: A549, 48 h, read-out: GI
A549 [3] = test: Cytotoxicity against Homo sapiens (human) A549 cells assessed as growth inhibition after 48 hr by MTT assay; format: functional, cell-based; conditions: for pIC50: Homo sapiens, A549, 48 h
PC-3 [4] = test: Cytotoxicity against Homo sapiens (human) PC3 cells assessed as growth inhibition after 48 hr by MTT assay; format: functional

Compound	inhibition of growth at 100 µM (PC-3 [1])	inhibition of growth at 100 µM (A549 [2])	pIC50 (A549 [3])	growth inhibition (GI) (PC-3 [4])	growth inhibition (GI) (A549 [3])	growth inhibition (GI) (A549 [3]; record 2)
CN1CCN(C(=O)c2ccc(NC(=O)Nc3ccc(Cl)c(Cl)c3)cc2)CC1	28%	36.5%				
CN1CCN(C(=O)c2ccc(NC(=O)Nc3ccc(Cl)c(C(F)(F)F)c3)cc2)CC1	25.5%	22.6%				
CN1CCN(C(=O)c2ccc(NC(=O)Nc3cccc(C(F)(F)F)c3)cc2)CC1	37.1%	21.2%				
CN1CCN(C(=O)c2ccc(NC(=O)Nc3cccc(C(=O)N4CCCCC4)c3)cc2)CC1	31.1%	19.7%				
CN1CCN(C(=O)c2ccc(NC(=O)Nc3ccc(OCc4cccc(F)c4)c(Cl)c3)cc2)CC1	82.7%	74%	4.97			
CNC(=O)c1cc(Oc2ccc(NC(=O)Nc3ccc(Cl)c(C(F)(F)F)c3)cc2)ccn1 [SORAFENIB]			5.22	91.4%	Dose-dependent effect	94.8%
COc1cc(NC(=O)Nc2ccc(C(=O)N3CCN(C)CC3)cc2)cc(OC)c1	40%	28.6%				
Cc1cc(NC(=O)Nc2ccc(C(=O)N3CCN(C)CC3)cc2)ccc1Cl	35.1%	27.5%				
CN1CCN(C(=O)c2ccc(NC(=O)Nc3ccc(F)c(F)c3)cc2)CC1	27.6%	43.1%				
CC(=O)Nc1nc2ccc(NC(=O)Nc3ccc(C(=O)N4CCN(C)CC4)cc3)cc2s1		93.5%	6.24		Dose-dependent effect	
CN1CCN(C(=O)c2ccc(NC(=O)Nc3ccc(F)c(Cl)c3)cc2)CC1	29.9%	28.4%				
C#Cc1cccc(NC(=O)Nc2ccc(C(=O)N3CCN(C)CC3)cc2)c1	49.3%	45.4%				
